Measured values taken from patent US6670401B2, “Polysubstituted indan-1-ol compounds, and methods for their preparation and use” (Aventis Pharma Deutschland GmbH, priority 2001, dated 2003).

Columns and labels:
female NMRI mice = experiment: Anorectic action: cumulative evaporated milk consumption after 24 h feed removal; type: in vivo, mouse; conditions: 30 mg/kg i.p.
Experimental: The activity of the compounds was assayed as follows:
The anorectic action was tested on female NMRI mice. After removal of feed for 24 hours, the preparation to be tested was administered intraperitoneally (i.p.) or by gavage (po). The animals were housed singly and, with free access to drinking water, they were offered evaporated milk 30 minutes after administration of the preparation. The consumption of evaporated milk was determined and the general behavior of the animals was monitored every half an hour for 7 hours. The measured milk consumption was compared to that of vehicle-treated control animals.

melting point: 148 °C
SMILES: CC1(O)c2ccc(Cl)cc2CC1(F)S(C)(=O)=O (stereo not drawn) [Example 1, 5-Chloro-2-fluoro-2-methanesulfonyl-1-methylindan-1-ol]
Reduction in cumulative milk consumption as % of the control (female NMRI mice; compared with vehicle-treated control animals): 25% | cumulative milk consumption by treated animals (female NMRI mice; milk offered 30 min after administration, monitored for 7 hours, N=4): 4/2.88 ml
